In data set [1] the test system is 60 human cancer cell lines. Put plainly: NCI-60 SRB screen, whole panel. Format: cell-based. As to conditions: Homo sapiens, 48 h; One Dose Mean Graph, Conc 1.00E-5 Molar; read-out: Mean Growth Percent.
The subject of data set [2] is UO-31. Briefly: NCI-60 SRB screen. Format: cell-based. As to conditions: Homo sapiens; UO-31, 10^–5 Molar; read-out: Percent growth inhibition. The protocol:
(§1) All newly synthesized compounds were selected and screened for anticancer activity against 60 human cancer cell lines representing 9 types of tumors including leukemia, melanoma, lung, colon, CNS, ovarian, renal, prostate, and breast cancers at the National Cancer Institute (NCI), Bethesda, USA. Screening was performed utilizing a single dose (10^−5 M concentration) and cells were incubated for 48 h. The end point was determined using sulforhodamine B (SRB) dye.
(§2) In this study, all the 16 newly synthesized compounds were submitted to the National Cancer Institute (USA) for anticancer evaluation and were selected and evaluated using 60 different human tumor cell lines representing lung, colon, CNS, ovarian, renal, prostate, breast cancers as well as leukemia and melanoma. A single dose (10^–5 Molar) was used for the initial screening for evaluation of anticancer activity. The 60 human cancer cell lines were provided by the national cancer institute biomedical research campus in Frederick, Maryland.
(§3) 60 different human cancer cell lines were utilized to screen the newly synthesized compounds for anticancer activity according to the previously reported standard procedure[24]–[26] as follows: • 96 well microtiter plates were used to inoculate the cells at […] ranging from 4000–5000 cells/well depending on the replication time of individual cell lines. Roswell Park Memorial Institute culture medium (RPMI 1640 medium) containing 2 mM L-glutamine and fetal bovine serum was used to grow the cells at 37 °C, 5% CO2, 95% air and 100% relative humidity for 24 h. • Fixation of cells in two plates of each cell line in situ was done using trichloroacetic acid (TCA). This represented the measurement of cell population at the time of drug addition (Tz). • Dimethyl sulfoxide (DMSO) was used to dissolve the synthesized compounds at 400-fold the desired final maximum concentration and frozen prior to use. This frozen concentrate was melted and diluted to twice the final concentration with complete medium containing 50 µg/mL gentamycin at time of drug addition. • The final compound concentration was obtained by adding 100 µL of the synthesized compounds to the appropriate microtiter wells already containing 100 µL followed by incubation of the plates at 37 °C, 5% CO2, 95% air and 100% relative humidity for 48 h. • Fixation of the cells was achieved by gentle addition of 50 µL of cold 50% (w/v) TCA followed by incubation for 60 min at 4 °C. The supernatant was then discarded and the plates are washed 5 times with tap water and air dried. • Sulphorhodamine B (SRB) solution (100 µL) at 0.4% (w/v) in 1% acetic acid was added to each plate followed by incubation for 10 min at room temperature. The unbound dye was then removed by washing five times with 1% acetic acid and plates were air dried. • Dissolution of the bound stain was done using […] trizma base and the absorbance was read at […] wavelength using an automated plate reader. • The percentage growth inhibition was calculated as follows: Ti-Tz/C-Tz×100forconcentrationswhichTi≥Tz Ti-Tz/Tz×100forconcentrationswhichTi<Tz • Time zero (Tz) • Control growth (C) • Test growth in the presence of drug (Ti)

For data set [3], the system named is MDA-MB-435. Put plainly: NCI-60 SRB screen. Format: cell-based. As to conditions: Homo sapiens; MDA-MB-435, 10^–5 Molar; read-out: Percent growth inhibition. The protocol: as §1, §2, §3
Data set [4] relates to PC-3. Briefly: NCI-60 SRB screen. Format: cell-based. As to conditions: Homo sapiens; PC-3, 10^–5 Molar; read-out: Percent growth inhibition. The protocol: as §1, §2, §3
In data set [5] the test system is SF-539. Put plainly: NCI-60 SRB screen. Format: cell-based. As to conditions: Homo sapiens; SF-539, 10^–5 Molar; read-out: Percent growth inhibition. The method, then: as §1, §2, §3
For data set [6], the system named is UACC-62. Put plainly: NCI-60 SRB screen. Format: cell-based. As to conditions: Homo sapiens; UACC-62, 10^–5 Molar; read-out: Percent growth inhibition. The method, then:
as §1, §2, §3

Data set [7] has as its system MCF7. Briefly: NCI-60 SRB screen. Format: cell-based. As to conditions: Homo sapiens; MCF7, 10^–5 Molar; read-out: Percent growth inhibition. The protocol:
as §1, §2, §3

The subject of data set [8] is OVCAR-4. Briefly: NCI-60 SRB screen. Format: cell-based. As to conditions: Homo sapiens; OVCAR-4, 10^–5 Molar; read-out: Percent growth inhibition. The protocol: as §1, §2, §3
In data set [9] the test system is LOX IMVI. Briefly: NCI-60 SRB screen. Format: cell-based. As to conditions: Homo sapiens, 10^–5 Molar, read-out: Percent growth inhibition. The method, then:
as §1, §2, §3

In data set [10] the test system is NCI-H522. Put plainly: NCI-60 SRB screen. Format: cell-based. The settings on record: Homo sapiens; NCI-H522, 10^–5 Molar; read-out: Percent growth inhibition. The method, then:
as §1, §2, §3

Data set [11] has as its system CAKI-1. Put plainly: NCI-60 SRB screen. Format: cell-based. The settings on record: Homo sapiens; CAKI-1, 10^–5 Molar; read-out: Percent growth inhibition. The protocol:
as §1, §2, §3

Data set [12] has as its system SNB-19. Put plainly: NCI-60 SRB screen. As to conditions: Homo sapiens; SNB-19, 10^–5 Molar; read-out: Percent growth inhibition. Format: cell-based. The method, then: as §1, §2, §3
In data set [13] the test system is HS 578T. Briefly: NCI-60 SRB screen. Format: cell-based. The settings on record: Homo sapiens, 10^–5 Molar, read-out: Percent growth inhibition. The protocol: as §1, §2, §3
Data set [14] concerns MDA-MB-231/ATCC. Put plainly: NCI-60 SRB screen. Format: cell-based. As to conditions: Homo sapiens, 10^–5 Molar, read-out: Percent growth inhibition. The method, then: as §1, §2, §3
Data set [15] has as its system BT-549. Briefly: NCI-60 SRB screen. Format: cell-based. The settings on record: Homo sapiens; BT-549, 10^–5 Molar; read-out: Percent growth inhibition. The method, then: as §1, §2, §3
In data set [16] the test system is NCI/ADR-RES. Put plainly: NCI-60 SRB screen. Format: cell-based. The settings on record: Homo sapiens, 10^–5 Molar, read-out: Percent growth inhibition. The method, then: as §1, §2, §3
The test system of data set [17] is SW-620. Briefly: NCI-60 SRB screen. Format: cell-based. As to conditions: Homo sapiens; SW-620, 10^–5 Molar; read-out: Percent growth inhibition. The protocol: as §1, §2, §3
In data set [18] the test system is SK-MEL-2. Briefly: NCI-60 SRB screen. The settings on record: Homo sapiens; SK-MEL-2, 10^–5 Molar; read-out: Percent growth inhibition. Format: cell-based. The protocol: as §1, §2, §3
The subject of data set [19] is SNB-75. Put plainly: NCI-60 SRB screen. Format: cell-based. The settings on record: Homo sapiens; SNB-75, 10^–5 Molar; read-out: Percent growth inhibition. The method, then: as §1, §2, §3
In data set [20] the test system is leukemia SR cells. Briefly: Cell cycle analysis, PI flow cytometry. Format: cell-based, human. Further details: increase of cells at pre-G1 phase vs control: concentration or dose not given beside the values. The method, then: The cells were washed twice using Ice-cold phosphate buffer saline (PBS). • Centrifugation was used to collect the cells, then the cells were fixed in 70% (v/v) ethanol, washed with PBS and re-suspended with 0.10 mg/mL RNase. • After that, cells were stained with […] propidium iodide (PI) and evaluated by flow cytometry using FACSCalibur (Becton Dickinson).
(In general: A flow cytometer gives signals particle by particle.)

The test system of data set [21] is leukemia SR cells. Briefly: Apoptosis, Annexin-V-FITC/PI. The settings on record: 3e at 1.90 µM, 24 h.
Data set [22] concerns the target T1, topoisomerase IIα (Homo sapiens, UniProt P11388).
T1 construct: purchased MBS2885049
Briefly: Topoisomerase ELISA kit inhibitory assay. Format: biochemical. As to conditions: four concentrations. The protocol: Four concentrations were used and IC50 was calculated.
Compound 3a,b,c,e were evaluated for topoisomerase IIα inhibitory activity utilizing the human DNA topoisomerase ELISA kit (MBS2885049) and following the provided procedure: • Standards and the tested compound were dissolved in sample diluent and tenfold serial dilution was achieved. • Biotin-conjugated antibody and avidin conjugated Horseradish Peroxidase (HRP-avidin) were diluted to tenfolds. • 100 µL of each concentration of standard or test compounds were added to each well and incubated at 37 °C for 1 h. • Removal of the liquid in each well was done. • To each well 100 µL of Biotin-conjugated antibody solution was added followed by incubation for 1 h at 37 °C. • The microtiter plate was allowed to aspirate and washed 3 times. • 100 µL of avidin conjugated Horseradish Peroxidase (HRP-avidin) solution was added to each well and incubatation for 1 h at 37 °C was achieved. • The plate was aspirated and washed 5 times. • Addition of 90 µL of 3,3′,5,5′-tetramethylbenzidine (TMB) substrate to each well followed by plate incubated for 30 min at 37 °C and protection from light was done. • 50 µL stop solution was added.
A general note: ELISA stands for enzyme-linked immunosorbent assay.

The results in this text go back to publication PMC10940605, “Design, synthesis and in vitro anticancer activity of some new lomefloxacin derivatives” (Scientific Reports, 2024).

One may read the inhibition as the change of the read-out against control, counted positive when it falls. Broadly, the melting point is the temperature of the solid-liquid transition. By IC50 is commonly meant the midpoint of a concentration-inhibition curve.

T1 sequence (P11388 whole entry): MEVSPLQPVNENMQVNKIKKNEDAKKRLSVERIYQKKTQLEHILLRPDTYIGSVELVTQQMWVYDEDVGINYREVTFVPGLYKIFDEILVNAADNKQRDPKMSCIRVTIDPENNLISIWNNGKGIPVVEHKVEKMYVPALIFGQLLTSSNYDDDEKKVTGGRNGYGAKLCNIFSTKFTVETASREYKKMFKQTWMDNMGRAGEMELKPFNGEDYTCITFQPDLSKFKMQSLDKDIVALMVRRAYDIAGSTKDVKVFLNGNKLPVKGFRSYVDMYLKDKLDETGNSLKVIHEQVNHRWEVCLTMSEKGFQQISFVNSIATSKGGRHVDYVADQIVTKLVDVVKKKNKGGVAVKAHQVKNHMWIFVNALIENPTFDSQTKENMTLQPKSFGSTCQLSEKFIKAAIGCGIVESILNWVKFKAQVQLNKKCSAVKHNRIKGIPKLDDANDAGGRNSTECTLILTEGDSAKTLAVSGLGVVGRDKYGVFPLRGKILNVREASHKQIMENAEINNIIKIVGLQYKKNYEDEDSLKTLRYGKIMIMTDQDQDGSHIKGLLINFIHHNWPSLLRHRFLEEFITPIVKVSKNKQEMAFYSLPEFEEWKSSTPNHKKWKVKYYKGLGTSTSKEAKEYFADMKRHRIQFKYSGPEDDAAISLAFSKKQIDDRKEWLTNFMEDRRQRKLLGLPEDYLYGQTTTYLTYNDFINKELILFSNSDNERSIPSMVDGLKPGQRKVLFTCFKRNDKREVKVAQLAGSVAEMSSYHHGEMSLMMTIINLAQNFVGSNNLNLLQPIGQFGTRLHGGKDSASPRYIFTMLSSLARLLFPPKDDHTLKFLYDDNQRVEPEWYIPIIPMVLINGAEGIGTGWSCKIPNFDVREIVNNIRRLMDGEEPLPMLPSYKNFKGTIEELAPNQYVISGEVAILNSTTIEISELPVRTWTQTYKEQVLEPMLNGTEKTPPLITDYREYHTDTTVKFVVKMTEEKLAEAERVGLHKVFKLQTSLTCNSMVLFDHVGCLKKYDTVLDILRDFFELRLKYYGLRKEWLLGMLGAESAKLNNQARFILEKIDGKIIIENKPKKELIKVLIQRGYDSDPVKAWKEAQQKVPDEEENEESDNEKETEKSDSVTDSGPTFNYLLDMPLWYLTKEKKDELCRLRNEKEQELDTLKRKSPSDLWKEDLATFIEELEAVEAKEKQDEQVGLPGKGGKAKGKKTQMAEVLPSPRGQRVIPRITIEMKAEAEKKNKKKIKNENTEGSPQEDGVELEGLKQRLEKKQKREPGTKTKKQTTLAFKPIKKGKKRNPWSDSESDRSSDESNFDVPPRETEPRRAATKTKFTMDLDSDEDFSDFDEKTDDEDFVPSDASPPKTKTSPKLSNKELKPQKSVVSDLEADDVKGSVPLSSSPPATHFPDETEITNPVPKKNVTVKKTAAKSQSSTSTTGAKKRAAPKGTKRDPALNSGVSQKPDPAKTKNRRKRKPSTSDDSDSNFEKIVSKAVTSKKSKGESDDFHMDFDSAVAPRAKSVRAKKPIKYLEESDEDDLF

Take `CCn1cc(C(=O)O)c(=O)c2cc(F)c(N3CCN(CC(=O)Nc4ccc(S(N)(=O)=O)cc4)C(C)C3)c(F)c21` (stereo not drawn) [Compound 5d, 1-Ethyl-6,8-difluoro-7-(3-methyl-4-(2-oxo-2-((4-sulfamoylphenyl)amino)ethyl)piperazin-1-yl)-4-oxo-1,4-dihydroquinoline-3-carboxylic acid]: the melting point was 228 to 230 °C. Also, the activity at 10 µM in [1] is 103%. Besides, the inhibition at 10 µM in data set [2] was determined as 12.9%. Also, in [3], the inhibition at 10 µM was found to be 1.15%. Further, the inhibition at 10 µM in [4] amounted to 1.64%. Besides, in data set [5], the inhibition at 10 µM came to 0.93%. For the same compound, in data set [6], the inhibition at 10 µM is 9.32%. Also, the inhibition at 10 µM in data set [7] came out at 5.22%. Also, the inhibition at 10 µM in data set [8] worked out at 3.58%. The inhibition at 10 µM in [9] came out at 4.12%. Further, the inhibition at 10 µM in data set [10] is 6.33%. Besides, the inhibition at 10 µM in data set [11] came out at 3.88%. Moreover, the inhibition at 10 µM in [12] came out at 3.07%. For the same compound, in [13], the inhibition at 10 µM was 0.41%. Further, the inhibition at 10 µM in data set [14] stood at 0.31%. For the same compound, the inhibition at 10 µM in data set [15] was determined as 0.7%. Also, in data set [16], the inhibition at 10 µM was 0.27%. The inhibition at 10 µM in data set [17] came to 0.37%. Besides, the inhibition at 10 µM in data set [18] amounted to 2.33%. The inhibition at 10 µM in data set [19] was found to be 11.9%.
As for `COc1cccc2c1C(=O)c1c(O)c3c(c(O)c1C2=O)C[C@@](O)(C(=O)CO)C[C@@H]3O[C@H]1C[C@H](N)[C@H](O)[C@H](C)O1` [Doxorubicin, reference compound], in [20], the “increase of cells at pre-G1 phase vs control” value is 8.62 folds. For the same compound, in data set [20] (3e at 1.90 µM, 24 h), the “%G0-G1” value is recorded as 25.18%, the “%G2-M” value amounted to 46.06%, the “%Pre-G1” value was determined as 22.17% and the “%S” value is on record as 28.76%. Moreover, in data set [21], the “Apoptosis %Early” value was 5.88%, the “Apoptosis %Late” value is 12.21%, the “Apoptosis %Total” value came out at 22.17% and the Necrosis is given as 4.08%. For the same compound, the IC50 in data set [22] was determined as 0.61 µM.
